Read-outs that look alike come from different tables or passages of the source.
Test system: C. parvum strain UGA1
Assay: C. parvum growth inhibition assay (Nluc luminescence in HCT-8 cells)
Assay type: cell-based, Cryptosporidium parvum
Conditions: Cryptosporidium parvum; for EC50: HCT-8, 48 h, C. parvum growth inhibition in HCT-8 cells, 48 hours, 6 concentrations 10-0.04 μM; for inhibition at 1 µM / inhibition at 10 µM: HCT-8; for inhibition at 1 µM: read-out: % inh @ 1 uM C. parvum; for inhibition at 10 µM: read-out: % inh @ 10 uM C. parvum
[1] = single point inhibition @ 10 uM
[2] = single point inhibition at 1 uM
[3] = single point inhibition at 10 uM

Cn1cc(C(=O)Nc2cc3c(cn2)cc(-c2ccnc(NCC(F)(F)F)n2)n3CCO)cn1 [Example 80, N-(1-(2-hydroxyethyl)-2-(2-(2,2,2-trifluoroethylamino)pyrimidin-4-yl)-1H-pyrrolo[3,2-c]pyridin-6-yl)-1-methyl-1H-pyrazole-4-carboxamide]
EC50: > 1 µM | inhibition at 1 µM (single point inhibition @ 1 uM): 0 to 33% | inhibition at 10 µM [1]: 33 to 66%

O=C(Nc1cc2[nH]c(-c3ccnc(C(F)(F)F)n3)cc2cn1)[C@H]1C[C@H](O)C1 [Example 92, (1r,3r)-3-hydroxy-N-(2-(2-(trifluoromethyl)pyrimidin-4-yl)-1H-pyrrolo[3,2-c]pyridin-6-yl)cyclobutanecarboxamide]
EC50: > 1 µM | inhibition at 1 µM (single point inhibition @ 1 uM): 33 to 66% | inhibition at 10 µM [1]: 0 to 33%

Cc1cc(-c2cc3cnc(NC(=O)c4cnn(C)c4)cc3[nH]2)ncn1 [Example 328, 1-methyl-N-(2-(6-methylpyrimidin-4-yl)-1H-pyrrolo[3,2-c]pyridin-6-yl)-1H-pyrazole-4-carboxamide]
inhibition at 1 µM [2]: 0 to 33% | inhibition at 10 µM [3]: 0 to 33%

CCOc1nccc(-c2cc3cnc(NC(=O)c4cnn(CCO)c4C)cc3[nH]2)n1 [Example 230, N-(2-(2-ethoxypyrimidin-4-yl)-1H-pyrrolo[3,2-c]pyridin-6-yl)-1-(2-hydroxyethyl)-5-methyl-1H_ pyrazole-4-carboxamide]
inhibition at 1 µM [2]: 0 to 33% | inhibition at 10 µM [3]: 33 to 66%

CC(C)n1cc(C(=O)Nc2cc3[nH]c(-c4ccnc(OCC(F)F)n4)cc3cn2)cn1 [Example 173, N-(2-(2-(2,2-difluoroethoxy)pyrimidin-4-yl)-1H-pyrrolo[3,2-c]pyridin-6-yl)-1-isopropyl-1H-pyrazole-4-carboxamide]
inhibition at 1 µM (single point inhibition @ 1 uM): 0 to 33% | inhibition at 10 µM [1]: 67 to 100%

c1ccc(Nc2cc3[nH]c(-c4ccccc4)cc3cn2)cc1 [Example 271, N,2-diphenyl-1H-pyrrolo[3,2-c]pyridin-6-amine]
inhibition at 1 µM [2]: 0 to 33% | inhibition at 10 µM [3]: 0 to 33%

Cn1cnc(-c2cc3cnc(NC(=O)C4CC4)cc3[nH]2)c1 [Example 60, N-(2-(1-methyl-1H-imidazol-4-yl)-1H-pyrrolo[3,2-c]pyridin-6-yl)cyclopropanecarboxamide]
EC50: > 1 µM

CC(C)n1cc(C(=O)Nc2cc3[nH]c(-c4ccnc(OCCF)n4)cc3cn2)cn1 [Example 146, N-(2-(2-(2-fluoroethoxy)pyrimidin-4-yl)-1H-pyrrolo[3,2-c]pyridin-6-yl)-1-isopropyl-1H-pyrazole-4-carboxamide]
inhibition at 1 µM (single point inhibition @ 1 uM): 0 to 33% | inhibition at 10 µM [1]: 67 to 100%

CN(CC(F)(F)F)c1cc(-c2cc3cnc(NC4CCOCC4)cc3[nH]2)ccn1 [Example 381, 2-(2-(methyl(2,2,2-trifluoroethyl)amino)pyridin-4-yl)-N-(tetrahydro-2H-pyran-4-yl)-1H-pyrrolo[3,2-c]pyridin-6-amine]
EC50: > 1 µM

Cn1c(C(F)(F)F)cc2cnc(NC(=O)C3CC3)cc21 [Example 77, N-(1-methyl-2-(trifluoromethyl)-1H-pyrrolo[3,2-c]pyridin-6-yl)cyclopropanecarboxamide]
EC50: > 1 µM

Cc1cc(-c2cc3cnc(NC(=O)C(C)O)cc3[nH]2)ccn1 (stereo in doubt) [Example 307, (S)-2-hydroxy-N-(2-(2-methylpyridin-4-yl)-1H-pyrrolo[3,2-c]pyridin-6-yl)propanamide]
inhibition at 1 µM [2]: 0 to 33% | inhibition at 10 µM [3]: 0 to 33%

O=S(=O)(Nc1cc2[nH]c(C(F)(F)F)cc2cn1)C1CC1 [Example 106, N-(2-(trifluoromethyl)-1H-pyrrolo[3,2-c]pyridin-6-yl)cyclopropanesulfonamide]
EC50: > 1 µM

Cc1cc(-c2cc3cnc(NC(=O)C4CC4)cc3n2CCN)ncn1 [Example 75, N-(1-(2-aminoethyl)-2-(6-methylpyrimidin-4-yl)-1H-pyrrolo[3,2-c]pyridin-6-yl)cyclopropanecarboxamide]
EC50: > 1 µM

Cn1cc(C(=O)Nc2cc3[nH]c(-c4ccnc(C#N)c4)cc3cn2)cn1 [Example 239, N-(2-(2-cyanopyridin-4-yl)-1H-pyrrolo[3,2-c]pyridin-6-yl)-1-methyl-1H-pyrazole-4-carboxamide]
inhibition at 1 µM [2]: 0 to 33% | inhibition at 10 µM [3]: 33 to 66%

CO[C@H]1C[C@@H](C(=O)Nc2cc3[nH]c(-c4ccnc(C)c4)cc3cn2)C1 [Example 191, (1s,3s)-3-methoxy-N-(2-(2-methylpyridin-4-yl)-1H-pyrrolo[3,2-c]pyridin-6-yl)cyclobutanecarboxamide]
inhibition at 1 µM (single point inhibition @ 1 uM): 0 to 33% | inhibition at 10 µM [1]: 67 to 100%

CCn1c(-c2ccnc(OC)n2)cc2cnc(NC(=O)C3CC3)cc21 [Example 344, N-(1-ethyl-2-(2-methoxypyrimidin-4-yl)-1H-pyrrolo[3,2-c]pyridin-6-yl)cyclopropanecarboxamide]
EC50: 0.5 to 1 µM

c1ccc(-c2cc3cnc(NC4CCOCC4)cc3[nH]2)nc1 [Example 349, 2-(pyridin-2-yl)-N-(tetrahydro-2H-pyran-4-yl)-1H-pyrrolo[3,2-c]pyridin-6-amine]
EC50: > 1 µM

Cn1c(-c2ccnc(NCC(F)(F)F)n2)cc2cnc(NC3CCCOC3)cc21 (stereo in doubt) [Example 386, (R)-1-methyl-N-(tetrahydro-2H-pyran-3-yl)-2-(2-(2,2,2-trifluoroethyl)amino)pyrimidin-4-yl)-1H-pyrrolo[3,2-c]pyridin-6-amine]
EC50: > 1 µM

COc1nccc(-c2cc3cnc(NC4CCOCC4)cc3[nH]2)n1 [Example 62, 2-(2-methoxypyrimidin-4-yl)-N-(tetrahydro-2H-pyran-4-yl)-1H-pyrrolo[3,2-c]pyridin-6-amine]
EC50: > 1 µM

COc1nccc(-c2cc3cnc(NC(=O)c4cnn([C@H]5CC[C@H](O)CC5)c4)cc3[nH]2)n1 [Example 219, 1-((1r,4r)-4-hydroxycyclohexyl)-N-(2-(2-methoxypyrimidin-4-yl)-1H-pyrrolo[3,2-c]pyridin-6-yl)-1H-pyrazole-4-carboxamide]
inhibition at 1 µM [2]: 0 to 33% | inhibition at 10 µM [3]: 33 to 66%

Cc1cc(-c2cc3cnc(N[C@H]4CCCOC4)cc3[nH]2)ccn1 [Example 22, (S)-2-(2-Methylpyridin-4-yl)-N-(tetrahydro-2H-pyran-3-yl)-1H-pyrrolo[3,2-c]pyridin-6-amine]
EC50: > 1 µM | inhibition at 1 µM (single point inhibition @ 1 uM): 33 to 66% | inhibition at 10 µM [1]: 67 to 100%

Cn1cc(C(=O)Nc2cc3[nH]c(-c4nc[nH]n4)cc3cn2)cn1 [Example 264, N-(2-(1H-1,2,4-triazol-3-yl)-1H-pyrrolo[3,2-c]pyridin-6-yl)-1-methyl-1H-pyrazole-4-carboxamide]
inhibition at 1 µM [2]: 0 to 33% | inhibition at 10 µM [3]: 0 to 33%

Cc1cc(-c2cc3cnc(NC(=O)c4c(C)noc4C)cc3[nH]2)ccn1 [Example 221, 3,5-dimethyl-N-(2-(2-methylpyridin-4-yl)-1H-pyrrolo[3,2-c]pyridin-6-yl)isoxazole-4-carboxamide]
inhibition at 1 µM [2]: 0 to 33% | inhibition at 10 µM [3]: 33 to 66%

Cn1c(-c2ccnc(C(F)(F)F)n2)cc2cnc(NC3CCOCC3)cc21 [Example 396, 1-methyl-N-(tetrahydro-2H-pyran-4-yl)-2-(2-(trifluoromethyl)pyrimidin-4-yl)-1H-pyrrolo[3,2-c]pyridin-6-amine]
EC50: > 1 µM

Cn1ccc(-c2cc3cnc(NC(=O)C4CC4)cc3n2C)n1 [Example 345, N-(1-methyl-2-(1-methyl-1H-pyrazol-3-yl)-1H-pyrrolo[3,2-c]pyridin-6-yl)cycloproapnecarboxamide]
EC50: > 1 µM

Cc1cc(-c2cc3cnc(NC(=O)c4ncoc4C)cc3[nH]2)ccn1 [Example 290, 5-methyl-N-(2-(2-methylpyridin-4-yl)-1H-pyrrolo[3,2-c]pyridin-6-yl)oxazole-4-carboxamide]
inhibition at 1 µM [2]: 0 to 33% | inhibition at 10 µM [3]: 0 to 33%

CCOc1nccc(-c2cc3cnc(NC(=O)c4ccc(OCCOC)c(OC)c4)cc3[nH]2)n1 [Example 249, N-(2-(2-ethoxypyrimidin-4-yl)-1H-pyrrolo[3,2-c]pyridin-6-yl)-3-methoxy-4-(2-methoxyethoxy)benzamide]
inhibition at 1 µM [2]: 0 to 33% | inhibition at 10 µM [3]: 0 to 33%

c1ncc(-c2cc3cnc(Nc4cnn(C5CCOCC5)c4)cc3[nH]2)o1 [Example 147, 2-(oxazol-5-yl)-N-(1-(tetrahydro-2H-pyran-4-yl)-1H-pyrazol-4-yl)-1H-pyrrolo[3,2-c]pyridin-6-amine]
inhibition at 1 µM (single point inhibition @ 1 uM): 0 to 33% | inhibition at 10 µM [1]: 67 to 100%

Cn1cc(C(=O)Nc2cc3c(cn2)cc(-c2ccnc(NCC(F)F)n2)n3C)cn1 [Example 144, N-(2-(2-(2,2-difluroethylamino)pyrimidin-4-yl)-1-methyl-1H-pyrrolo[3,2-c]pyridin-6-yl)-1-methyl-1H-pyrazole-4-carboxmaide]
inhibition at 1 µM (single point inhibition @ 1 uM): 0 to 33% | inhibition at 10 µM [1]: 67 to 100%

CC(C)n1cc(-c2cc3cnc(NC4CCOCC4)cc3n2C)cn1 [Example 241, 2-(1-isopropyl-1H-pyrazol-4-yl)-1-methyl-N-(tetrahydro-2H-pyran-4-yl)-1H-pyrrolo[3,2-c]pyridin-6-amine]
inhibition at 1 µM [2]: 33 to 66% | inhibition at 10 µM [3]: 0 to 33%

Cc1nccc(-c2cc3cnc(NC4CCOCC4)cc3n2C)n1 [Example 378, 1-methyl-2-(2-methylpyrimidin-4-yl)-N-(tetrahydro-2H-pyran-4-yl)-1H-pyrrolo[3,2-c]pyridin-6-amine]
EC50: > 1 µM

O=C(Nc1cc2[nH]c(-c3cnc(C(F)(F)F)s3)cc2cn1)C1CC1 [Example 103, N-(2-(2-(trifluoromethyl)thiazol-5-yl)-1H-pyrrolo[3,2-c]pyridin-6-yl)cyclopropanecarboxamide]
EC50: > 1 µM

Cc1nn(C)cc1C(=O)Nc1cc2[nH]c(-c3ccnc(OCC(F)F)n3)cc2cn1 [Example 317, N-(2-(2-(2,2-difluoroethoxy)pyrimidin-4-yl)-1H-pyrrolo[3,2-c]pyridin-6-yl)-1,3-dimethyl-1H-pyrazole-4-carboxamide]
inhibition at 1 µM [2]: 0 to 33% | inhibition at 10 µM [3]: 0 to 33%

From patent US20240124444A1 (Celgene Corporation, priority 2020, published 2024)
